# In patent US8268747B2, “Safening penoxsulam herbicide injury in water-seeded, direct-seeded and transplanted paddy rice” (Dow AgroSciences, LLC., priority 2009, dated 2012):
# Key:
# [1] = system: Oryza sativa 'M205' (rice); settings: in vivo
# Protocol: (§1) Evaluation of Postemergence Herbicidal Safening in Water-Seeded Rice
# (§2) Pre-germinated rice was applied directly into a flooded rice paddy. The rice paddy was prepared as per normal cultural practices, by applying appropriate fertilizers, working and leveling the ground before flooding, with water flooded across the entire field to a depth of 1 to 5 inches prior to seeding with the pre-germinated rice seed.
# (§3) Treatments consisted of penoxsulam and clomazone applied alone and in combination directly into the flooded rice paddy as granular formulated treatments. These treatments could also be applied as liquid applications directly into the water. Clomazone was applied the day of rice seeding, at 13 days after rice seeding, and in combination with penoxsulam at 13 days after rice seeding. Penoxsulam was applied alone and in combination with clomazone at 13 days after rice seeding.
# (§4) Colby's equation was used to determine the herbicidal effects expected from the mixtures (Colby, S. R. 1967. Calculation of the synergistic and antagonistic response of herbicide combinations. Weeds 15:20-22.).
# (§5) The following equation was used to calculate the expected activity of mixtures containing two active ingredients, A and B: Expected=A+B−(A×B/100)
# (§6) A=observed efficacy of active ingredient A at the same concentration as used in the mixture.
# (§7) B=observed efficacy of active ingredient B at the same concentration as used in the mixture.
# [2] = system: Oryza sativa 'M205' (rice); assay: Rice % stand reduction, postemergence safening in water-seeded rice
# Protocol: as §1, §2, §3, §4, §5, §6, §7
# [3] = system: Echinochloa oryzoides (watergrass); assay: % visual weed control in water-seeded rice, ECHOR; assay type: in vivo; settings: 13 days after seeding, 27 days after treatment
# Protocol: as §2, §3, §4, §5, §6, §7
# [4] = system: Leptochloa fascicularis (sprangletop); assay: % visual weed control in water-seeded rice, LEFFA; assay type: in vivo; settings: 13 days after seeding, 27 days after treatment
# Protocol: as §2, §3, §4, §5, §6, §7
# [5] = system: Cyperus difformis (smallflower umbrella sedge); assay: % visual weed control in water-seeded rice, CYPDI; assay type: in vivo; settings: 13 days after seeding, 27 days after treatment
# Protocol: as §2, §3, §4, §5, §6, §7
smiles,measurement,setting,value
"CC1(C)CON(Cc2ccccc2Cl)C1=O [Clomazone, 2-[(2-chlorophenyl)methyl]-4,4-dimethyl-3-isoxazolidinone]",visual injury to rice (text summary of Table 1),[1],0-3%
same,effect on the rice stand (text summary of Table 2),[2]; clomazone alone,negligible effect
same,Rice % Stand Reduction Ratings ORYSA (3) Exp,[2]; in vivo,3%
same,Rice % Stand Reduction Ratings ORYSA (3) Obs,[2]; in vivo,3%
same,% Weed Control Ratings ECHOR (1) Obs,[3]; clomazone 224 g ai/ha alone,93%
same,% Weed Control Ratings ECHOR (1) Obs,[3]; clomazone 336 g ai/ha alone,96%
same,% Weed Control Ratings ECHOR (1) Obs,[3]; clomazone 448 g ai/ha alone,97%
same,% Weed Control Ratings LEFFA (2) Obs,[4]; clomazone 224 g ai/ha alone,98%
same,% Weed Control Ratings LEFFA (2) Obs,[4]; clomazone 336 g ai/ha alone,99%
same,% Weed Control Ratings LEFFA (2) Obs,[4]; clomazone 448 g ai/ha alone,99%
same,% Weed Control Ratings CYPDI (3) Obs,[5]; clomazone 224 g ai/ha alone,73%
same,% Weed Control Ratings CYPDI (3) Obs,[5]; clomazone 336 g ai/ha alone,88%
same,% Weed Control Ratings CYPDI (3) Obs,[5]; clomazone 448 g ai/ha alone,87%
"COc1cnc(OC)n2nc(NS(=O)(=O)c3c(OCC(F)F)cccc3C(F)(F)F)nc12 [Penoxsulam, 2-(2,2-difluoroethoxy)-N-(5,8-dimethoxy[1,2,4]triazolo[1,5-c]pyrimidin-2-yl)-6-(trifluoromethyl)benzenesulfonamide]",Rice % Visual Injury Ratings ORYSA (1) Obs,[1],12%
same,Rice % Visual Injury Ratings ORYSA (2) Obs,[1],9%
same,Rice % Visual Injury Ratings ORYSA (3) Obs,[1],5%
same,injury to rice (text summary of Table 1),[1],slight injury
same,Rice % Stand Reduction Ratings ORYSA (1) Exp,[2]; in vivo,27%
same,Rice % Stand Reduction Ratings ORYSA (1) Obs,[2]; in vivo,27%
same,Rice % Stand Reduction Ratings ORYSA (2) Exp,[2]; in vivo,33%
same,Rice % Stand Reduction Ratings ORYSA (2) Obs,[2]; in vivo,33%
same,Rice % Stand Reduction Ratings ORYSA (3) Exp,[2]; in vivo,33%
same,Rice % Stand Reduction Ratings ORYSA (3) Obs,[2]; in vivo,33%
same,impact on the rice stand (text summary of Table 2),[2]; in vivo,slight negative impact
same,% Weed Control Ratings ECHOR (1) Obs,[3]; penoxsulam 40 g ai/ha alone,98%
same,% Weed Control Ratings LEFFA (2) Obs,[4]; penoxsulam 40 g ai/ha alone,74%
same,% Weed Control Ratings CYPDI (3) Obs,[5]; penoxsulam 40 g ai/ha alone,99%
